Drawing on patent US9023809B2, “Phenylalanine dipeptide derivatives, compositions and use thereof” (The Key Laboratory of Chemistry For Natural Products of …, priority 2008, dated 2015), this text covers TC50, IC50 and melting point for eleven compounds.

The structures appear in SMILES notation. Converted amounts (≈) assume the structure as drawn. Where a SMILES comes first, the peptide text is derived from it. [ ]: non-standard residue; d: D form. The star is where a group is joined. Phe(4-NO2) = N[C@@H](Cc1ccc([N+](=O)[O-])cc1)C(=O)O; 4Abz = Nc1ccc(C(=O)O)cc1; Propionyl = CCC(=O)*; Bz = O=C(c1ccccc1)*

Data set [1] has as its system 2.2.15 cells. Put plainly: Cytotoxicity (TC50, median toxic concentration) in 2.2.15 cells. The data set is classed as cell-based. The protocol:
(§1) Cell control wells were simultaneously set up. […] IC50 and SI were calculated, respectively.

Data set [2] concerns HBV DNA replication. In words: In vitro anti-HBV: inhibition of HBV DNA replication in 2.2.15 cells (dot blot). Type of data set: cell-based, hepatitis B virus. The conditions noted are these: Hepatitis B virus, 192 h, day 8, dot blot. Here is the method:
as §1

`O=C(N[C@@H](Cc1ccccc1)C(=O)N[C@H](CO)Cc1ccccc1)c1ccc(CN2CCOCC2)cc1` [Example 51, N-{N-[4-(4-morpholinyl)methyl-benzoyl]-L-phenylalanyl}-L-phenylalaninol]: the melting point (usually the temperature, or range, at which the solid turns liquid) was 183 to 184.5 °C. Also, the TC50 in data set [1] was 78.52 µg/mL (≈ 157 µM). It took 6.98 µg/mL (≈ 13.9 µM) to reach half-maximal inhibition in data set [2] (IC50).
For `CCOC(=O)c1ccc(C(=O)N[C@@H](Cc2ccccc2)C(=O)N[C@H](CO)Cc2ccccc2)cc1` [Example 52, N-[N-(4-ethoxycarbonyl-benzoyl)-L-phenylalanyl]-L-phenylalaninol] the same measures were 188 to 189.5 °C, 89.23 µg/mL (≈ 188 µM) and 24.2 µg/mL (≈ 51 µM).
For `Cc1cccc(C(=O)N[C@@H](Cc2ccccc2)C(=O)N[C@H](CO)Cc2ccccc2)c1` [Example 05, N-(N-3-methyl-benzoyl-L-phenylalanyl)-L-phenylalaninol], the melting point fell in the range of 177 to 178.5 °C. Further, in data set [1], the TC50 was 77.04 µg/mL (≈ 185 µM). Besides, the half-maximal inhibitory concentration (IC50) (as a rule, the concentration that gives 50% inhibition) in data set [2] amounted to 25.2 µg/mL (≈ 60.5 µM).
For `O=C(N[C@@H](Cc1ccc(O)cc1)C(=O)N[C@H](CO)Cc1ccccc1)c1ccc(F)cc1` [Example 24, N-(N-4-fluoro-benzoyl-L-tyrosyl)-L-phenylalaninol], in that order: 194.5 to 195.5 °C, 396.81 µg/mL (≈ 909 µM) and 96 µg/mL (≈ 220 µM).
For `COC(=O)[C@H](Cc1ccccc1)NC(=O)[C@H](Cc1ccc(O)cc1)NC(=O)c1ccc(Cl)cc1` [Example 20, methyl N-(N-4-chloro-benzoyl-L-tyrosyl)-L-phenylalaninate], in that order: 203.5 to 205 °C, 198.46 µg/mL (≈ 413 µM) and 48.5 µg/mL (≈ 101 µM).
In turn, `COC(=O)[C@H](Cc1ccccc1)NC(=O)[C@H](Cc1ccccc1)N(C(C)=O)C(=O)c1ccccc1` [Example 57, methyl N-(N-benzoyl-acetyl-L-phenylalanyl)-L-phenylalaninate] came in with a melting point of 221 to 222 °C. The same compound came in with a TC50 in data set [1] of 451.20 µg/mL (≈ 955 µM). Further, 59.5 µg/mL (≈ 126 µM) corresponded to half-maximal inhibition in data set [2] (IC50).
As for `O=C(N[C@@H](Cc1ccc(O)cc1)C(=O)N[C@H](CO)Cc1ccccc1)c1ccccc1Cl` [Example 22, N-(N-2-chloro-benzoyl-L-tyrosyl)-L-phenylalaninol], the melting point was 168 to 169 °C. Besides, the TC50 in data set [1] is 346.68 µg/mL (≈ 765 µM). In addition, in data set [2], the IC50 turned out to be 106 µg/mL (≈ 234 µM).
For `CCC(=O)Nc1ccc(C(=O)N[C@@H](Cc2ccccc2)C(=O)N[C@@H](Cc2ccccc2)C(=O)OC)cc1` [Example 37, methyl N-[N-(4-propionamido-benzoyl)-L-phenylalanyl]-L-phenylalaninate] ({Propionyl-4Abz}-Phe-Phe-OMe) the same measures were 225 to 227 °C, 129.34 µg/mL (≈ 258 µM) and 1.43 µg/mL (≈ 2.85 µM).
For `COC(=O)[C@H](Cc1ccc(O)cc1)NC(=O)[C@H](Cc1ccccc1)NC(=O)c1ccc(NC(C)=O)cc1` [Example 36, methyl N-[N-(4-acetamido-benzoyl)-L-phenylalanyl]-L-tyrosinate] (Ac-[4Abz]-Phe-Tyr-OMe) the same measures were 215.5 to 217 °C, 388.03 µg/mL (≈ 771 µM) and 4.56 µg/mL (≈ 9.06 µM).
For `COC(=O)[C@H](Cc1ccc(O)cc1)NC(=O)[C@H](Cc1ccc([N+](=O)[O-])cc1)NC(=O)c1ccccc1` [Example 14, methyl N-(N-benzoyl-4-nitro-L-phenylalanyl)-L-tyrosinate] (Bz-[Phe(4-NO2)]-Tyr-OMe), in that order: 200 to 202 °C, 53.42 µg/mL (≈ 109 µM) and 1.16 µg/mL (≈ 2.36 µM).
`COC(=O)[C@H](Cc1ccccc1)NC(=O)[C@H](Cc1ccc(O)cc1)NC(=O)c1ccccc1Cl` [Example 23, methyl N-(N-2-chloro-benzoyl-L-tyrosyl)-L-phenylalaninate]: the melting point lay in the range of 175.5 to 177.5 °C. The same compound yielded a TC50 in data set [1] of 240.38 µg/mL (≈ 500 µM). Further, half-maximal inhibition in data set [2] (IC50) required 52 µg/mL (≈ 108 µM).
